We go through twelve compounds from patent US6706740B2, “Fungicidal heterocyclic aromatic amides and their compositions, methods of use and preparation” (Dow AgroSciences LLC, priority 1999, dated 2004).

Where two headings read alike, the source gives them in different places.

For experiment [1], the system named is Leptosphaeria nodorum—LEPTNO. Description: Glume Blotch of Wheat, in vivo whole plant, 24 Hour Protectant. The conditions noted are these: Leptosphaeria, control of fungal infection vs untreated plants, read-out: LEPTNO in vivo 1 Day Protectant.
For experiment [2], the system named is Phytophthora infestans (PHYTIN). Description: microbe, parasite or virus in culture. To be noted: Phytophthora infestans, read-out: PHYTIN in vitro Growth Inhibition. The format is cell-based.
In a further experiment the test system is Erysiphe graminis—ERYSGT. Description: Powdery Mildew of Wheat, in vivo whole plant, 24 Hour Protectant. To be noted: Erysiphe, control of fungal infection vs untreated plants, read-out: ERYSGT in vivo 1 Day Protectant.
Experiment [3] concerns Rhizoctonia solani (RHIZSO). Description: microbe, parasite or virus in culture. The format is cell-based. The conditions noted are these: Rhizoctonia solani, read-out: RHIZSO in vitro Growth Inhibition.
Experiment [4] deals with Puccinia recondita—PUCCRT. Description: Brown Rust of Wheat, in vivo whole plant, 24 Hour Protectant. The conditions noted are these: Puccinia, control of fungal infection vs untreated plants, read-out: PUCCRT in vivo 1 Day Protectant.
The test system of experiment [5] is Mycosphaerella graminicola (Septoria tritici—SEPTTR). Description: In vitro fungal growth inhibition, Mycosphaerella graminicola (SEPTTR). The format is cell-based. To be noted: Zymoseptoria tritici, read-out: SEPTTR in vitro Growth Inhibition.
Experiment [6] has as its system Magnaporthe grisea (Pyricularia oryzae—PYRIOR). Description: microbe, parasite or virus in culture. To be noted: Pyricularia oryzae, read-out: PYRIOR in vitro Growth Inhibition. The class given is cell-based.
The next experiment relates to Septoria tritici—SEPTTR. Description: Leaf Blotch of Wheat, in vivo whole plant, 24 Hour Protectant. The conditions noted are these: Zymoseptoria tritici, 24 h, control of fungal infection vs untreated plants, read-out: SEPTTR in vivo 1 Day Protectant.
In the next experiment the test system is Ustilago maydis (USTIMA). Description: microbe, parasite or virus in culture. The class given is cell-based. The conditions noted are these: Mycosarcoma maydis, read-out: USTIMA in vitro Growth Inhibition.
Experiment [7] deals with Stagonospora nodorum (Leptosphaeria nodorum—LEPTNO). Description: In vitro fungal growth inhibition, Stagonospora nodorum (LEPTNO). The format is cell-based. The conditions noted are these: Leptosphaeria, read-out: LEPTNO in vitro Growth Inhibition.
In experiment [8] the test system is Phytophthora infestans—PHYTIN. Description: whole plant or invertebrate. The conditions noted are these: Phytophthora, in Solanum lycopersicum, 24 h, read-out: PHYTIN in vivo 1 Day Protectant. The format is in vivo.
Setting [9] is: wheat plants sprayed at 100 ppm, inoculated after 24 hours.
Where [10] appears, read: 100 ppm spray, 24 hour protectant, wheat.
Where [11] appears, read: 100 ppm spray, wheat, 24 hour protectant.

Usually inhibition stands for the drop in the measured response relative to a control, in per cent. `O=C(Nc1ccccc1Oc1cccc(C(F)(F)F)c1)c1nc(Br)ccc1O` [Compound 492]: the pest or weed control at 100 ppm in experiment [1] (setting [9]) was less than 25%; with Erysiphe graminis—ERYSGT (setting [9]), less than 25%; in experiment [4] (setting [9]) it was less than 25%; in the experiment with Septoria tritici—SEPTTR (setting [9]), 25 to 74%; in [8], less than 25%. Moreover, the inhibition at 25 ppm (in experiment [2]; in [3]; in experiment [5] (25 ppm in the growth medium); in experiment [6]; in the experiment with Ustilago maydis (USTIMA); in experiment [7] (25 ppm in the growth medium)) was less than 80% each time.
As to `COc1ccnc(C(=O)NC2C[C@H](C)O[C@](C)(Cc3ccccc3)C2)c1O` (stereo partly drawn) [Compound 313], the pest or weed control at 100 ppm in [1] (setting [10]) is 25 to 74%; with Erysiphe graminis—ERYSGT (setting [10]) it was 25 to 74%; in experiment [4] (setting [10]) it was 25 to 74%; with Septoria tritici—SEPTTR (setting [10]), 25 to 74%; in experiment [8], less than 25%. Besides, the inhibition at 25 ppm (in experiment [2]; in experiment [3]; in [5] (25 ppm in growth medium); in [6]; in the experiment on Ustilago maydis (USTIMA); in experiment [7] (25 ppm in growth medium)) was less than 80% throughout.
Regarding `CC(NC(=O)c1ccncc1O)c1ccc(Oc2ccccc2)cc1` (stereo not drawn) [Compound 512], the pest or weed control at 100 ppm in [1] (setting [9]) is less than 25%; with Erysiphe graminis—ERYSGT (setting [9]), less than 25%; in [4] (setting [9]), less than 25%; in the experiment on Septoria tritici—SEPTTR (setting [9]), less than 25%; in experiment [8] it was 25 to 74%. The inhibition at 25 ppm (in experiment [2]; in experiment [3]; in experiment [5] (25 ppm in the growth medium); in experiment [6]; in the experiment on Ustilago maydis (USTIMA); in experiment [7] (25 ppm in the growth medium)) was less than 80% each time.
Consider `COc1ccnc(C(=O)Nc2ccccc2Oc2ccccc2C#N)c1O` [Compound 418], for which the pest or weed control at 100 ppm in experiment [1] (setting [11]) was less than 25%; in the experiment on Erysiphe graminis—ERYSGT (setting [11]) it was less than 25%; in [4] (setting [11]), 25 to 74%; with Septoria tritici—SEPTTR (setting [11]), less than 25%; in experiment [8], less than 25%. Moreover, the inhibition at 25 ppm (in experiment [2]; in experiment [3]; in experiment [5] (25 ppm in growth medium); in [6]; in the experiment with Ustilago maydis (USTIMA); in experiment [7] (25 ppm in growth medium)) was less than 80% throughout.
For `CSc1nnc(C(=O)N[C@H]2COC(=O)[C@H](Cc3ccccc3)[C@@H](OC(=O)C(C)C)[C@H](C)OC2=O)c(O)n1` [Compound 547], the pest or weed control at 100 ppm is less than 25% in experiment [1] (setting [9]); less than 25% in the experiment with Erysiphe graminis—ERYSGT (setting [9]); 25 to 74% in experiment [4] (setting [9]); 25 to 74% with Septoria tritici—SEPTTR (setting [9]); 25 to 74% in experiment [8]. Also, the inhibition at 25 ppm in experiment [2] is greater than 80%; in [3] it was less than 80%; in [5] (25 ppm in the growth medium), less than 80%; in experiment [6] it was less than 80%; in the experiment on Ustilago maydis (USTIMA) it was less than 80%; in experiment [7] (25 ppm in the growth medium) it was less than 80%.
With `COc1ccnc(C(=O)N[C@@H]2CC3CC2[C@H]2COC[C@@H]32)c1O` (stereo partly drawn) [Compound 302], the pest or weed control at 100 ppm in [1] (setting [10]) was 25 to 74%; in the experiment on Erysiphe graminis—ERYSGT (setting [10]), less than 25%; in experiment [4] (setting [10]) it was less than 25%; in the experiment with Septoria tritici—SEPTTR (setting [10]) it was 25 to 74%; in experiment [8] it was less than 25%. The inhibition at 25 ppm (in experiment [2]; in [3]; in experiment [5] (25 ppm in growth medium); in [6]; with Ustilago maydis (USTIMA); in [7] (25 ppm in growth medium)) was less than 80% each time.
Consider `COc1ccnc(C(=O)NC2CC(c3ccco3)CC(C)(C)C2)c1O` (stereo not drawn) [Compound 258], for which the pest or weed control at 100 ppm in experiment [1] (setting [10]) is 25 to 74%; in the experiment on Erysiphe graminis—ERYSGT (setting [10]), less than 25%; in experiment [4] (setting [10]), less than 25%; in the experiment with Septoria tritici—SEPTTR (setting [10]), 25 to 74%; in experiment [8], less than 25%. For the same compound, the inhibition at 25 ppm in [2] is greater than 80%; in experiment [3] it was less than 80%; in experiment [5] (25 ppm in growth medium) it was greater than 80%; in experiment [6], less than 80%; in the experiment with Ustilago maydis (USTIMA), less than 80%; in experiment [7] (25 ppm in growth medium), greater than 80%.
`COc1ccnc(C(=O)Nc2cccc(Oc3ccccc3Cl)c2)c1O` [Compound 439]: the pest or weed control at 100 ppm was 25 to 74% in [1] (setting [11]); less than 25% in the experiment on Erysiphe graminis—ERYSGT (setting [11]); 25 to 74% in experiment [4] (setting [11]); less than 25% with Septoria tritici—SEPTTR (setting [11]); less than 25% in experiment [8]. The inhibition at 25 ppm (in [2]; in experiment [3]; in [5] (25 ppm in growth medium); in experiment [6]; in the experiment on Ustilago maydis (USTIMA); in [7] (25 ppm in growth medium)) was less than 80% throughout.
Turning to `CC1(C)CC(NC(=O)c2ncccc2O)CC(C)(C)C1=O` [Compound 205], the pest or weed control at 100 ppm (in experiment [1] (setting [10]); in the experiment with Erysiphe graminis—ERYSGT (setting [10]); in experiment [4] (setting [10]); in the experiment with Septoria tritici—SEPTTR (setting [10]); in [8]) was less than 25% throughout. Moreover, the inhibition at 25 ppm (in experiment [2]; in [3]; in experiment [5] (25 ppm in growth medium); in experiment [6]; in the experiment with Ustilago maydis (USTIMA); in experiment [7] (25 ppm in growth medium)) was less than 80% throughout.
In the case of `COc1ccnc(C(=O)Nc2ccc(C(=O)Nc3cccc(C(F)(F)F)c3)cc2)c1O` [Compound 449], the pest or weed control at 100 ppm was 25 to 74% in experiment [1] (setting [11]); less than 25% in the experiment on Erysiphe graminis—ERYSGT (setting [11]); less than 25% in experiment [4] (setting [11]); 25 to 74% in the experiment on Septoria tritici—SEPTTR (setting [11]); less than 25% in experiment [8]. Further, the inhibition at 25 ppm was less than 80% in experiment [2]; greater than 80% in experiment [3]; less than 80% in [5] (25 ppm in growth medium); greater than 80% in [6]; less than 80% in the experiment with Ustilago maydis (USTIMA); less than 80% in experiment [7] (25 ppm in growth medium).
`COc1ccnc(C(=O)NC2O[C@H](CO)[C@H]3OC(C)(C)O[C@@H]23)c1O` (stereo partly drawn) [Compound 329]: the pest or weed control at 100 ppm is 25 to 74% in experiment [1] (setting [11]); less than 25% in the experiment with Erysiphe graminis—ERYSGT (setting [11]); 25 to 74% in [4] (setting [11]); 25 to 74% with Septoria tritici—SEPTTR (setting [11]); less than 25% in experiment [8]. In addition, the inhibition at 25 ppm (in experiment [2]; in [3]; in [5] (25 ppm in growth medium); in experiment [6]; in the experiment on Ustilago maydis (USTIMA); in [7] (25 ppm in growth medium)) was less than 80% throughout.
Consider `COC(=O)C(COC(=O)COCc1ccccc1)NC(=O)c1nccc(OC)c1OC(C)=O` (stereo not drawn) [Compound 585], for which the pest or weed control at 100 ppm was 25 to 74% in experiment [1] (setting [9]); less than 25% in the experiment on Erysiphe graminis—ERYSGT (setting [9]); 25 to 74% in experiment [4] (setting [9]); 25 to 74% in the experiment on Septoria tritici—SEPTTR (setting [9]); less than 25% in experiment [8]. Besides, the inhibition at 25 ppm (in experiment [2]; in experiment [3]; in experiment [5] (25 ppm in the growth medium); in experiment [6]; with Ustilago maydis (USTIMA); in experiment [7] (25 ppm in the growth medium)) was less than 80% each time.
